Here are results for 3 compounds from article PMC11868579 (Nature Communications, 2024).

One experiment deals with MCL1 protein expression. The experiment is described as follows: Immunoblot of MCL1 in eIF4E-dTAG clones and rescue models. It is filed as cell-based, human. The conditions noted are these: for Quantification of MCL1 immunoblot signals using Image J, Average: Cont = 100; for Quantification of MCL1 (6hr) immunoblot signal using Image J, Average: 0.5 μM, control = 100. The protocol: One sample t and Wilcoxon tests (two-sided), using 100% as hypothetical control value, were performed and compared with the control in each cell line. b, c Real-time cell growth measurements monitored every 4 h over a 6-day period. Cell confluency (%) was calculated using Incucyte Zoom software and (mean ± SEM n = 3 biological replicates). Ordinary one-way ANOVA with Tukey multiple comparisons test compared treatment with the control in each cell line. […] Vinculin was used as loading control. H1299 (PAR) cell lines were treated with 1 μM dTAG^V-1 only as qualitative control. Vinculin was used as loading control. […] Significant p-values (< 0.05) are shown on the plots and the source data is located in the Source Data file.
After seeding overnight in 6 well plates (Corning, cat#353046), cells were treated with compounds for the indicated times and concentration, harvested and the cell pellet lysed on ice in cell lysis buffer (Cell Signaling, cat#9803), supplemented with 1x Halt^TM protease inhibitor cocktail (Fisher Scientific, cat#78429) and cOmplete^TM protease inhibitor cocktail (Sigma-Aldrich, cat#11836153001) for 1 hr. Protein was quantified using BCA protein kit (Fisher Scientific, cat#23225). Western blot was performed using NuPAGE^TM 4–12% Bis-Tris gels (Fisher Scientific, cat#NP0336BOX) and transferred using the Invitrogen iBLOT^TM gel transfer device system (Fisher Scientific, Cat#IB21001). […] All primary antibodies were diluted (1:1000) in 5% BSA (Sigma-Aldrich, cat#A7906) in 1x TBS and 0.1% Tween 20 (Sigma-Aldrich, cat#P1379), except for vinculin (1:2000) that was diluted in casein blocker (Sigma-Aldrich, cat#1610782). This was followed by incubation with the secondary HRP-conjugated antibodies (anti-mouse HRP, Bio-rad, Watford, UK, cat#1705047; anti-rabbit HRP, Sigma-Aldrich, cat#NA934) in casein for 1 h at RT. ECL HRP substrate (SuperSignalTM West Pico, Fisher Scientific, cat#34578) was then added to detect protein targets by chemiluminescence and images acquired using the ChemiDocTM system (Bio-Rad). Quantitative densitometry analysis of protein bands was performed using Image J v1.53 software.
A general note: In western blotting, separated proteins are transferred to a membrane and probed.

Experiment [1] deals with H1299 eIF4E-dTAG clones (C2-2, C3-1, N2-1, N3-2) and C3-1 rescue models. The experiment is described as follows: IncuCyte real-time cell growth of eIF4E-dTAG clones and rescue models. It is filed as cell-based, human. The note with it: for proliferation on co-treatment: 25 μM with dTAG^V-1. The protocol:
Real time monitoring of cell growth was performed with the IncuCyte ZOOM live cell imaging system (Essen BioSciences, USA). Cells were seeded in 96 well plates (Corning, cat#353072) and treated on the next day. The resulting phase-contrast images were analysed using IncuCyte ZOOM 2018A software and results were expressed as percentage confluency of cells.

Experiment [2] concerns the target T1, endogenous eIF4E:eIF4G interaction (Homo sapiens, UniProt P06730).
T1 construct: endogenous in cells; host or cells: HeLa, SW620 or H1299 cells (lysates; intact H1299 cells in A13)
The experiment is described as follows: Electro-chemiluminescent eIF4E:eIF4G assay after treatment of intact H1299 cells. It is filed as cell-based. The conditions noted are these: 100 µM; for disruption of eIF4E:eIF4G binding in intact cells: 16 hr; for endogenous eIF4E:eIF4G interaction in intact cells, electro-chemiluminescent signal, Average: H1299.

Another experiment concerns IRES-driven translation. The experiment in a line: HeLa in vitro translation assay, IRES-driven reporter. It is filed as biochemical, human. The note with it: for rLuc (IRES) luminescence normalized to DMSO control, Average: HeLa lysate IVT, n=3. The protocol: HeLa In vitro translation (IVT) assay kits were purchased from Thermo Fisher(cat#88882). Bicistronic reporter mRNA was prepared from using a CMV/T7-renilla luciferase-IRES(FDMV)-firefly luciferase reporter vector as template DNA (supplied by Oxford Genetics Ltd.) using Message Machine T7 Ultra transcription Kit (Thermo Fisher, cat# AM1345) to generate in vitro transcribed mRNA. DNA template was removed with Turbo DNase from the transcription kit and the mRNA purified using RNeasy columns (Qiagen, cat#74204). RNA concentration was adjusted to 1 µg/µl using a Nanodrop. In vitro translation assays were then set up using a HeLa IVT kit according to the manufacturer’s protocol. The reaction was analysed using Dual Glo luciferase reporter assays (Promega, cat#E2920). Compounds were diluted from 100x DMSO stocks 1:10 in PBS and 2.5 µl transferred to 96 well PCR plates (Starlab, cat#I1402-9700). 22.5 µl IVT reaction mix (1.5 mL HeLa lysate, 60 µl RNAsin (Promega, cat#N2115), 300 µl accessory proteins, 600 µl reaction buffer, 200 µl nuclease free water and 30 µl […] mRNA) was added and incubated for 30 min at 30 °C (PCR alphacycler 4, PCRmax, Stone, Staffordshire, UK). The samples were placed on ice for 10 min, then 10 µl was removed and transferred to a white 96 well assay plate (Corning, cat#3917). […]

The target of the next experiment is T2, eIF4E-dTAG protein (Homo sapiens, UniProt P06730).
T2 construct: expressed in transfected cells
The experiment in a line: CETSA of eIF4E-dTAG protein in H1299 C3-1 cells. In kind it is cell-based. The note with it: relative to control = 1.000, n=3. The protocol: Cells (1.5 × 10^6 cells) were plated into 75 cm^2 flasks and allowed to attached overnight. After treatment with compound 4 or 5 for 6 h, they were harvested by trypsinisation and washed x2 in ice cold PBS. Cells were resuspended in 1 ml of cold PBS supplemented with protease and phosphatase inhibitors (Fisher Scientific, cat#1861281). Resuspended cells were divided into 100 μl aliquots and centrifuged at 300 x g for 3 min at 4 °C. Following centrifugation, 75μl of supernatant was removed and cells resuspended in the remaining volume. Cell suspensions were heated at 40.9, 43.7, 48.1, 52.9, 57.6, 62.4, 67.2, 71.9, 76.3 and 79.1 °C for 3 mins followed by cooling at 20 °C for 3 min[25]. Suspensions were freeze-thawed twice using liquid nitrogen. Soluble fractions were separated from cell debris by centrifuging at 20,000 x g for 30 min at 4 °C. Samples were then analysed by Western Blot. […]
Vinculin was used as a loading control. c Thermal stabilisation of eIF4E-dTAG protein by compound 4 or 5 binding. Quantification of immunoblots from H1299 C3-1cells incubated at 57.6 °C, following treatment with compound 4 (50, 25, 10, 5, 1, 0.5 μM) or compound 5 (50 μM) for 6 hr. Vinculin was […]
(1 picture or pasted object on this page, not shown here)

The target of a further experiment is T3, eIF4G binding to eIF4E (Homo sapiens, UniProt P06730).
T3 construct: endogenous in cells; host or cells: SW620 cells (lysates)
The experiment in a line: Co-immunoprecipitation with eIF4E antibody, immunoblot for eIF4G, SW620 lysates. In kind it is biochemical. The note with it: 1–100 µM, 30 min.

Setting [3] is: 25 μM, absence of dTAG^V-1, C3-1, W73F and L85R models.

T1 sequence (P06730 2-217 limits assumed): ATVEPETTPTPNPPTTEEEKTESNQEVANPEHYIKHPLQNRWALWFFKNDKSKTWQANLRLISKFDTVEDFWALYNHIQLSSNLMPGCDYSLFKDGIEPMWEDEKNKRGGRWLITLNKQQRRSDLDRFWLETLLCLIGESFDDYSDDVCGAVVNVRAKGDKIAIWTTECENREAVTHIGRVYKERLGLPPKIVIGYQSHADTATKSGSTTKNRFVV
T2 sequence (P06730 with tags, fused parts or gaps): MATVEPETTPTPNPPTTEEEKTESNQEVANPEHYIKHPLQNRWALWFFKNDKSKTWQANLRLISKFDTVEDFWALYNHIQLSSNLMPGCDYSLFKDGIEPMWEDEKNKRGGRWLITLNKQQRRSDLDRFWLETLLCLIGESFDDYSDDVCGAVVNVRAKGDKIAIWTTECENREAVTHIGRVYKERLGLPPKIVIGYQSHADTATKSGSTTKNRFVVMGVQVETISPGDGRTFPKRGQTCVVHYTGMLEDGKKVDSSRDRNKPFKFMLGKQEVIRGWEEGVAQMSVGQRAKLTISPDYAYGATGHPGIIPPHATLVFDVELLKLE
T3 sequence (P06730 2-217 limits assumed): as the sequence (P06730 2-217 limits assumed) above
Protocol for eIF4G binding to eIF4E: Cells were harvested by trypsinisation and washed with PBS before lysis in MSD lysis buffer (150 mM NaCl, 20 mM Tris pH 7.5, 1 mM EDTA, 1 mM EGTA, 1% Triton X-100) containing protease inhibitors (Roche, complete mini tablet, cat# 11836153001) and phosphatase inhibitors (50 mM NaF and 100 mM Na3VO4). Lysate was placed on ice for 30 min and then cleared in a microfuge at 17,000 x g for 10 min at 4 °C. The protein concentration of the cleared lysate was determined by BCA assay (Pierce) and adjusted to 4 mg/ml with lysis buffer. […] 100 μl of lysate and 100 μl of beads were then incubated with shaking overnight at 4 °C. Samples were then washed 3x with 1 ml PBS, resuspended in 100 μl PBS and boiled for 10 min with 1x SDS-PAGE sample buffer containing 10 μl 1 mM DTT.
After seeding overnight in 6 well plates (Corning, cat#353046), cells were treated with compounds for the indicated times and concentration, harvested and the cell pellet lysed on ice in cell lysis buffer (Cell Signaling, cat#9803), supplemented with 1x Halt^TM protease inhibitor cocktail (Fisher Scientific, cat#78429) and cOmplete^TM protease inhibitor cocktail (Sigma-Aldrich, cat#11836153001) for 1 hr. Protein was quantified using BCA protein kit (Fisher Scientific, cat#23225). […] Quantitative densitometry analysis of protein bands was performed using Image J v1.53 software.

Consider `CC[C@H](C(=O)N1CCCC[C@H]1C(=O)O[C@H](CCc1ccc(OC)c(OC)c1)c1ccccc1OCC(=O)NCCCCCCC(=O)N[C@H](C(=O)N1C[C@H](O)C[C@H]1C(=O)N[C@@H](C)c1ccc(-c2scnc2C)cc1)C(C)(C)C)c1cc(OC)c(OC)c(OC)c1` [dTAG^V-1], for which the “Quantification of MCL1 immunoblot signals using Image J, Average” value came out at 116.17 in the experiment on MCL1 protein expression (C3-1 + WT eIF4E, 0.5 uM, n=3); 110.20 with MCL1 protein expression (C3-1 + WT eIF4E, 1 uM, n=3); 39.67 with MCL1 protein expression (C3-1, 0.5 uM, n=3); 38.77 in the experiment with MCL1 protein expression (C3-1, 1 uM, n=3); 69.30 with MCL1 protein expression (L85R, 0.5 uM, n=3); 57.73 with MCL1 protein expression (L85R, 1 uM, n=3). The “Quantification of MCL1 immunoblot signals using Image J, Average” value in the experiment with MCL1 protein expression (L134R, 0.5 uM, n=3) was 63.30; with MCL1 protein expression (L134R, 1 uM, n=3), 50.60; with MCL1 protein expression (S209A, 0.5 uM, n=3) it was 104.13; in the experiment with MCL1 protein expression (S209A, 1 uM, n=3), 110.17; with MCL1 protein expression (W56A, 0.5 uM, two experiments), 55.95; in the experiment on MCL1 protein expression (W56A, 1 uM, n=3) it was 64.70. For the same compound, the “Quantification of MCL1 immunoblot signals using Image J, Average” value with MCL1 protein expression (W73F/L85R, 0.5 uM, n=3) is given as 57.83; in the experiment with MCL1 protein expression (W73F/L85R, 1 uM, n=3), 56.77; with MCL1 protein expression (W73F, 0.5 uM, n=3), 92.60; in the experiment on MCL1 protein expression (W73F, 1 uM, n=3) it was 99.57. Further, the “Quantification of MCL1 (6hr) immunoblot signal using Image J, Average” value was 44 in the experiment with MCL1 protein expression (C3-1, n=3); 117 with MCL1 protein expression (S209A rescue, n=3); 49 with MCL1 protein expression (W56A rescue, n=3); 99 in the experiment with MCL1 protein expression (WT rescue, n=3). Moreover, the “MCL1 protein after treatment” value in the experiment with MCL1 protein expression (eIF4E-dTAG clones) was “decrease in MCL1 protein”. Also, in experiment [1] (treatment for 6 days, 0.5 or 1 µM), the “growth of eIF4E-dTAG clones” value was “inhibited growth of all 4 clones”.
For `CC[C@@H](O[C@H](C)CO)c1ccc(-c2ccccc2F)cc1NCCO` [Compound 5], in experiment [2], the “disruption of eIF4E:eIF4G binding in intact cells” value was “some limited evidence of activity”. Moreover, the “endogenous eIF4E:eIF4G interaction in intact cells, electro-chemiluminescent signal, Average” value is recorded as 1584729.4 in experiment [2] (6hr, control 1641896.8) and 1071107.1 in experiment [2] (16hr, control 1700881.1). Moreover, in the experiment with IRES-driven translation (1, 10, 100 µM), the “effect on cap-independent IRES-driven translation” value is on record as “no significant effect”. Further, the figures for the “rLuc (IRES) luminescence normalized to DMSO control, Average” value in the experiment on IRES-driven translation (1 μM), in the experiment with IRES-driven translation (10 μM) and in the experiment with IRES-driven translation (100 μM) were 100.6%, 89.2% and 98.4%, respectively. Further, the “Thermal stabilisation of eIF4E-dTAG protein, Average” value at eIF4E-dTAG protein (50 μM) is 1.004. Moreover, at eIF4G binding to eIF4E, the “effect on eIF4G binding to eIF4E (co-immunoprecipitation)” value is reported as “limited effect”. Moreover, the “effects on cell growth, control combination” value in experiment [1] (compound 5 with dTAG^V-1) is “no significant effects”.
On to `CC[C@H](O[C@H](C)CO)c1ccc(-c2ccccc2F)cc1NCCO` [Compound 4], for which the “disruption of eIF4E:eIF4G binding in intact cells” value in experiment [2] is “significantly disrupt eIF4E:eIF4G binding”. Further, the “endogenous eIF4E:eIF4G interaction in intact cells, electro-chemiluminescent signal, Average” value in experiment [2] (6hr, control 1641896.8) is 1444726.0; in experiment [2] (16hr, control 1700881.1), 549014.1. The EC50 in the experiment on IRES-driven translation (HeLa in vitro translation, 30 min, read-out: effect on IRES-driven translation) was > 100 µM. Further, the “rLuc (IRES) luminescence normalized to DMSO control, Average” value in the experiment on IRES-driven translation (1 μM) worked out at 97.0%; with IRES-driven translation (10 μM) it was 85.6%; with IRES-driven translation (100 μM), 88.7%. Besides, the “MCL1 expression on co-treatment” value in the experiment on MCL1 protein expression (25 μM with dTAG^V-1, C3-1 or L85R rescue line) was “no additional loss of proliferation or MCL1 expression”. In addition, the “effect on MCL1 biomarker” value in the experiment with MCL1 protein expression (setting [3]) is recorded as “no effect on the MCL1 biomarker or proliferation”. For the same compound, the “Thermal stabilisation of eIF4E-dTAG protein, Average” value on eIF4E-dTAG protein (0.5 μM) is listed as 1.070; on eIF4E-dTAG protein (1 μM) it was 1.047; on eIF4E-dTAG protein (5 μM) it was 1.235; at eIF4E-dTAG protein (10 μM), 1.737; at eIF4E-dTAG protein (25 μM), 1.613; at eIF4E-dTAG protein (50 μM) it was 1.946. Moreover, the “effect on eIF4G binding to eIF4E (co-immunoprecipitation)” value at eIF4G binding to eIF4E was “disrupted eIF4G binding to eIF4E”. Also, the proliferation on co-treatment result is reported as “no additional loss of proliferation or MCL1 expression” in experiment [1] (C3-1 or L85R rescue line) and “significant combinatorial effect on proliferation” in experiment [1] (W73F mutant model). The effect on proliferation result in experiment [1] (setting [3]) is recorded as “no effect on the MCL1 biomarker or proliferation”. The “effects on cell growth, control combination” value in experiment [1] (compound 4 with neg-dTAG^V-1) is on record as “no significant effects”. The sensitisation on co-treatment entry in experiment [1] (with dTAG^V-1, W73F mutant model) is recorded as “≈ 50%”.
